pIC50: −log10 of the molar value.
System: NCI-H196 complex spheroid viability
Assay: Anticancer human tumor NCI-H196 cell line growth inhibition [LSD1];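 note: spheroids exposed to agents for 7 days before readout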;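 for viability, T/C: 100% = DMSO vehicle control viability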
Conditions: for pIC50: curve of first compound; for viability, T/C: stronger effect = lower value
Summary of the method: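 Multicellular complex spheroids of tumor cells with human endothelial cells (HUVEC) and mesenchymal stem cells; the LSD1 inhibitor iadademstat was combined with standard-of-care or investigational agents. Top concentration at or near clinical Cmax, half-log dilutions; final DMSO ≤0.25%.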

[1] = second compound 0.1 µM, first compound 0.00316 µM
[2] = second compound 0.1 µM, first compound 0.01 µM
[3] = second compound 0.1 µM, first compound 0.0316 µM
[4] = second compound 0.1 µM, first compound 0.1 µM
[5] = second compound 0.316 µM, first compound 0.00316 µM
[6] = second compound 0.316 µM, first compound 0.01 µM
[7] = second compound 0.316 µM, first compound 0.0316 µM
[8] = second compound 0.316 µM, first compound 0.1 µM
[9] = second compound 1 µM, first compound 0.00316 µM
[10] = second compound 1 µM, first compound 0.01 µM
[11] = second compound 1 µM, first compound 0.0316 µM
[12] = second compound 1 µM, first compound 0.1 µM
[13] = second compound 3.16 µM, first compound 0.00316 µM
[14] = second compound 3.16 µM, first compound 0.01 µM
[15] = second compound 3.16 µM, first compound 0.0316 µM
[16] = second compound 3.16 µM, first compound 0.1 µM
[17] = second compound 10 µM, first compound 0.00316 µM
[18] = second compound 10 µM, first compound 0.01 µM
[19] = second compound 10 µM, first compound 0.0316 µM
[20] = second compound 10 µM, first compound 0.1 µM
[21] = second compound 0.1 µM, first compound 0.00949 µM
[22] = second compound 0.1 µM, first compound 0.03 µM
[23] = second compound 0.1 µM, first compound 0.0949 µM
[24] = second compound 0.1 µM, first compound 0.3 µM
[25] = second compound 0.1 µM, first compound 0.949 µM
[26] = second compound 0.1 µM, first compound 3 µM
[27] = second compound 0.316 µM, first compound 0.00949 µM
[28] = second compound 0.316 µM, first compound 0.03 µM
[29] = second compound 0.316 µM, first compound 0.0949 µM
[30] = second compound 0.316 µM, first compound 0.3 µM
[31] = second compound 0.316 µM, first compound 0.949 µM
[32] = second compound 0.316 µM, first compound 3 µM
[33] = second compound 1 µM, first compound 0.00949 µM
[34] = second compound 1 µM, first compound 0.03 µM
[35] = second compound 1 µM, first compound 0.0949 µM
[36] = second compound 1 µM, first compound 0.3 µM
[37] = second compound 1 µM, first compound 0.949 µM
[38] = second compound 1 µM, first compound 3 µM
[39] = second compound 3.16 µM, first compound 0.00949 µM
[40] = second compound 3.16 µM, first compound 0.03 µM
[41] = second compound 3.16 µM, first compound 0.0949 µM
[42] = second compound 3.16 µM, first compound 0.3 µM
[43] = second compound 3.16 µM, first compound 0.949 µM
[44] = second compound 3.16 µM, first compound 3 µM
[45] = second compound 10 µM, first compound 0.00949 µM
[46] = second compound 10 µM, first compound 0.03 µM
[47] = second compound 10 µM, first compound 0.0949 µM
[48] = second compound 10 µM, first compound 0.3 µM
[49] = second compound 10 µM, first compound 0.949 µM
[50] = second compound 10 µM, first compound 3 µM

## COc1cc(Nc2ncc3c(n2)-c2ccc(Cl)cc2C(c2c(F)cccc2OC)=NC3)ccc1C(=O)O + NC1CCC(NC2CC2c2ccccc2)CC1
Second compound 0.1 µM
  pIC50: < 6.00
Second compound 0.316 µM
  pIC50: < 6.00
Second compound 1 µM
  pIC50: < 6.00
Second compound 3.16 µM
  pIC50: < 6.00
Second compound 10 µM
  pIC50: < 6.00
[1]
  viability, T/C: 94.8%
[2]
  viability, T/C: 107%
[3]
  viability, T/C: 122%
[4]
  viability, T/C: 116%
Second compound 0.1 µM, first compound 0.316 µM
  viability, T/C: 134%
Second compound 0.1 µM, first compound 1 µM
  viability, T/C: 121%
[5]
  viability, T/C: 99.2%
[6]
  viability, T/C: 103%
[7]
  viability, T/C: 112%
[8]
  viability, T/C: 131%
Second compound 0.316 µM, first compound 0.316 µM
  viability, T/C: 123%
Second compound 0.316 µM, first compound 1 µM
  viability, T/C: 138%
[9]
  viability, T/C: 94.4%
[10]
  viability, T/C: 108%
[11]
  viability, T/C: 102%
[12]
  viability, T/C: 113%
Second compound 1 µM, first compound 0.316 µM
  viability, T/C: 126%
Second compound 1 µM, first compound 1 µM
  viability, T/C: 119%
[13]
  viability, T/C: 95.7%
[14]
  viability, T/C: 105%
[15]
  viability, T/C: 110%
[16]
  viability, T/C: 103%
Second compound 3.16 µM, first compound 0.316 µM
  viability, T/C: 128%
Second compound 3.16 µM, first compound 1 µM
  viability, T/C: 126%
[17]
  viability, T/C: 92.2%
[18]
  viability, T/C: 107%
[19]
  viability, T/C: 97.6%
[20]
  viability, T/C: 116%
Second compound 10 µM, first compound 0.316 µM
  viability, T/C: 125%
Second compound 10 µM, first compound 1 µM
  viability, T/C: 113%

## Cn1ncnc1C1c2n[nH]c(=O)c3cc(F)cc(c23)NC1c1ccc(F)cc1 (stereo not given) + NC1CCC(NC2CC2c2ccccc2)CC1
Second compound 0.1 µM
  pIC50: < 7.00
Second compound 0.316 µM
  pIC50: < 7.00
Second compound 1 µM
  pIC50: < 7.00
Second compound 3.16 µM
  pIC50: < 7.00
Second compound 10 µM
  pIC50: < 7.00
Second compound 0.1 µM, first compound 0.000316 µM
  viability, T/C: 93.4%
Second compound 0.1 µM, first compound 0.001 µM
  viability, T/C: 110%
[1]
  viability, T/C: 95.6%
[2]
  viability, T/C: 94.8%
[3]
  viability, T/C: 98.5%
[4]
  viability, T/C: 99.6%
Second compound 0.316 µM, first compound 0.000316 µM
  viability, T/C: 100%
Second compound 0.316 µM, first compound 0.001 µM
  viability, T/C: 102%
[5]
  viability, T/C: 101%
[6]
  viability, T/C: 92.8%
[7]
  viability, T/C: 93.9%
[8]
  viability, T/C: 92.5%
Second compound 1 µM, first compound 0.000316 µM
  viability, T/C: 95.5%
Second compound 1 µM, first compound 0.001 µM
  viability, T/C: 98.4%
[9]
  viability, T/C: 97.4%
[10]
  viability, T/C: 98.1%
[11]
  viability, T/C: 94.3%
[12]
  viability, T/C: 94.4%
Second compound 3.16 µM, first compound 0.000316 µM
  viability, T/C: 90.7%
Second compound 3.16 µM, first compound 0.001 µM
  viability, T/C: 99.8%
[13]
  viability, T/C: 98.3%
[14]
  viability, T/C: 88.8%
[15]
  viability, T/C: 95.9%
[16]
  viability, T/C: 93.9%
Second compound 10 µM, first compound 0.000316 µM
  viability, T/C: 97.2%
Second compound 10 µM, first compound 0.001 µM
  viability, T/C: 106%
[17]
  viability, T/C: 95.9%
[18]
  viability, T/C: 104%
[19]
  viability, T/C: 94.3%
[20]
  viability, T/C: 91.3%

## NS(=O)(=O)OCC1CC(n2ccc3c(NC4CCc5ccccc54)ncnc32)CC1O (stereo not given) + NC1CCC(NC2CC2c2ccccc2)CC1
Second compound 0.1 µM
  pIC50: < 5.52
Second compound 0.316 µM
  pIC50: < 5.52
Second compound 1 µM
  pIC50: < 5.52
Second compound 3.16 µM
  pIC50: < 5.52
Second compound 10 µM
  pIC50: < 5.52
[21]
  viability, T/C: 109%
[22]
  viability, T/C: 103%
[23]
  viability, T/C: 79.6%
[24]
  viability, T/C: 89.3%
[25]
  viability, T/C: 84.7%
[26]
  viability, T/C: 71.4%
[27]
  viability, T/C: 108%
[28]
  viability, T/C: 104%
[29]
  viability, T/C: 79.2%
[30]
  viability, T/C: 78%
[31]
  viability, T/C: 78.6%
[32]
  viability, T/C: 72.7%
[33]
  viability, T/C: 103%
[34]
  viability, T/C: 101%
[35]
  viability, T/C: 76.2%
[36]
  viability, T/C: 81.8%
[37]
  viability, T/C: 82.7%
[38]
  viability, T/C: 77.6%
[39]
  viability, T/C: 92.5%
[40]
  viability, T/C: 109%
[41]
  viability, T/C: 77.7%
[42]
  viability, T/C: 80.5%
[43]
  viability, T/C: 76.9%
[44]
  viability, T/C: 71.6%
[45]
  viability, T/C: 102%
[46]
  viability, T/C: 95.4%
[47]
  viability, T/C: 73.6%
[48]
  viability, T/C: 83.6%
[49]
  viability, T/C: 78.3%
[50]
  viability, T/C: 64.7%

## O=C(C=Cc1cccc(S(=O)(=O)Nc2ccccc2)c1)NO + NC1CCC(NC2CC2c2ccccc2)CC1
Second compound 0.1 µM
  pIC50: 6.79
Second compound 0.316 µM
  pIC50: 6.86
Second compound 1 µM
  pIC50: 6.80
Second compound 3.16 µM
  pIC50: 6.84
Second compound 10 µM
  pIC50: 6.86
[21]
  viability, T/C: 99.6%
[22]
  viability, T/C: 103%
[23]
  viability, T/C: 75.4%
[24]
  viability, T/C: 21.1%
[25]
  viability, T/C: 0.51%
[26]
  viability, T/C: 0.44%
[27]
  viability, T/C: 93.9%
[28]
  viability, T/C: 101%
[29]
  viability, T/C: 65.8%
[30]
  viability, T/C: 16.7%
[31]
  viability, T/C: 0.24%
[32]
  viability, T/C: 1.63%
[33]
  viability, T/C: 94.5%
[34]
  viability, T/C: 93.4%
[35]
  viability, T/C: 75.4%
[36]
  viability, T/C: 18.4%
[37]
  viability, T/C: 0.31%
[38]
  viability, T/C: 0.36%
[39]
  viability, T/C: 96.9%
[40]
  viability, T/C: 92.3%
[41]
  viability, T/C: 68.5%
[42]
  viability, T/C: 18.5%
[43]
  viability, T/C: 0.41%
[44]
  viability, T/C: 0.27%
[45]
  viability, T/C: 88.8%
[46]
  viability, T/C: 89.8%
[47]
  viability, T/C: 64.7%
[48]
  viability, T/C: 18.6%
[49]
  viability, T/C: 0.76%
[50]
  viability, T/C: 0.84%
